From ChEMBL document CHEMBL1909492, “Discovery of 1-arylcarbonyl-6,7-dimethoxyisoquinoline derivatives as glutamine fructose-6-phosphate amidotransferase (GFAT) inhibitors” (Bioorg Med Chem Lett, 2011)
Values after ≈ are worked out from the molar mass of the structure shown. Active and inactive are the calls of the source. No cut-off for these calls is given here.

Legend:
[1] = Inhibition of GFAT-beta expressed in COS cells using […] as substrate
[2] = Photo-degradation of compound in DMSO at 1 mM after 2 hrs by HPLC/UV spectrophotometric analysis; type: physicochemical; conditions: read-out: Activity
[3] = biological target: T1, Glutamine--fructose-6-phosphate aminotransferase [isomerizing] 1 (Homo sapiens, UniProt Q06210); experiment: Reversible inhibition of GFAT
[4] = biological target: T1, Glutamine--fructose-6-phosphate aminotransferase [isomerizing] 1; experiment: Irreversible inhibition of GFAT
[5] = biological target: T1, Glutamine--fructose-6-phosphate aminotransferase [isomerizing] 1; experiment: Inhibition of GFAT using […] as substrate
[6] = Volume of distribution in rat at 10 mg/kg, iv; type: ADME, organism-based; design: dose 10 mg/kg, route intravenous; conditions: in vivo
[7] = Oral bioavailability in rat at 50 mg/kg; type: ADME, organism-based; conditions: in vivo
[8] = AUC in rat at 50 mg/kg, po; type: ADME, organism-based; design: dose 50 mg/kg, route oral; conditions: plasma
Mus musculus [9] = experiment: Antidiabetic activity in […] ob/ob mouse assessed decrease of glucose AUC at 50 mg/kg, po at 4 hr and 1 hr prior to oral glucose challenge by oral glucose tolerance test relative to control; type: functional; design: scale not given: the % may be the effect or the level left
[10] = Clearance in rat at 10 mg/kg, iv; type: ADME, organism-based; design: dose 10 mg/kg, route intravenous; conditions: in vivo
[11] = Lipophilicity, log D of the compound at pH 7.2; type: physicochemical; conditions: buffer
[12] = Photo-degradation of compound in DMSO exposed to daylight at 1 mM after 24 hrs by HPLC analysis; type: physicochemical; conditions: 1000 µM
[13] = Apparent permeability across human Caco2 cell membrane; type: ADME, cell-based; conditions: Caco-2
[14] = Photo-degradation of compound in DMSO at 1 mM after 2 hrs by LC/MS analysis; type: physicochemical; conditions: read-out: Activity
[15] = Cmax in rat at 50 mg/kg, po; type: ADME, organism-based; design: dose 50 mg/kg, route oral; conditions: in vivo
[16] = Solubility of the compound at pH 6.4; type: physicochemical; conditions: buffer
[17] = biological target: T1, Glutamine--fructose-6-phosphate aminotransferase [isomerizing] 1; experiment: Noncompetitive inhibition of GFAT in presence of fructose-6-phosphate
Mus musculus [18] = experiment: Antidiabetic activity in fasted ob/ob mouse assessed as deduction of glucose excursion at 50 mg/kg, po at 4 hr and 1 hr prior to oral glucose challenge by oral glucose tolerance test; type: functional, organism-based; design: dose 50 mg/kg
[19] = Half life in rat at 10 mg/kg, iv; type: ADME, organism-based; design: dose 10 mg/kg, route intravenous; conditions: in vivo
[20] = AUC in rat at 10 mg/kg, iv; type: ADME, organism-based; design: dose 10 mg/kg, route intravenous; conditions: plasma
[21] = Tmax in rat at 50 mg/kg, po; type: ADME, organism-based; design: dose 50 mg/kg, route oral; conditions: in vivo
[22] = biological target: T1, Glutamine--fructose-6-phosphate aminotransferase [isomerizing] 1; experiment: Competitive inhibition of GFAT in presence of glutamine
[23] = Photo-degradation of compound in solid state over years by HPLC analysis; type: physicochemical

T1 sequence (Q06210 whole entry): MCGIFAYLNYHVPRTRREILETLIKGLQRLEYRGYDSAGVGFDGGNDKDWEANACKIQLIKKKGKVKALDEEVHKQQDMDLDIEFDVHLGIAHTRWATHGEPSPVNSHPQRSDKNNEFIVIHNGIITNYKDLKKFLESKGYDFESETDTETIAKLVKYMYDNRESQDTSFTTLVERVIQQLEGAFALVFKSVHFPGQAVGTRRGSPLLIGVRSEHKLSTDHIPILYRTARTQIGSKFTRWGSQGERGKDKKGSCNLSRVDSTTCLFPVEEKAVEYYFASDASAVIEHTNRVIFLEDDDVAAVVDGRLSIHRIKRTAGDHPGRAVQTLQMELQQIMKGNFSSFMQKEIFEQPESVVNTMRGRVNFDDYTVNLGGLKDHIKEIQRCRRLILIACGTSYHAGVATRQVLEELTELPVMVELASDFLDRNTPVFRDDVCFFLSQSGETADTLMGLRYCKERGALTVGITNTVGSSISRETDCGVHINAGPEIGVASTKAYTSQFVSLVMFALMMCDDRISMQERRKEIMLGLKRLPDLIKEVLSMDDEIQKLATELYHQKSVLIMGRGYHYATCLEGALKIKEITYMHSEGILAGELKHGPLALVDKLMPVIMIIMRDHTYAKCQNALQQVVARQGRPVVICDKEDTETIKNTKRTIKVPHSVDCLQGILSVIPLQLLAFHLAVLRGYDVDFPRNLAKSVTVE

Row | IC50 [1] | Structure (SMILES) | further results
1 | > 100000 nM | COc1ccc(Cc2ncc(C(=O)O)c3cc(OC)c(OC)cc23)cc1OC | 
2 | 9930 nM | COc1cc2c(C(=O)O)cnc(C(=O)c3c(F)cccc3F)c2cc1OC | degraded at 2 h, 1000 µM [2]: 0%; inhibition [3]: Active
3 | 900 nM | COc1cc2c(C(=O)O)cnc(C(=O)c3c(F)ccc(OC(C)C)c3F)c2cc1OC | 
4 | 1200 nM | COc1cccc(C(=O)c2ncc(C(=O)O)c3cc(OC)c(OC)cc23)c1 | 
5 |  | COC(=O)/C=C/C(=O)NC[C@H](N)C(=O)O | IC50 [4]: 400 nM
6 | 580 nM | COc1cc2c(Cn3oc(=O)[nH]c3=O)cnc(C(=O)c3cccc(OC(C)C)c3)c2cc1OC | 
7 | > 100000 nM | COc1ccc(C(=O)c2ncc(C(=O)O)c3cc(OC)c(OC)cc23)cc1 | 
8 | > 100000 nM | COc1cccc(C(=O)c2ncc(C(=O)O)c3ccc(OC)cc23)c1 | 
9 | 20000 nM | COc1ccc(C(=O)c2ncc(C(=O)O)c3cc(OC)c(OC)cc23)cc1OC | 
10 | 10000 nM | COc1cc2c(C(=O)O)cnc(C(=O)c3ccccc3)c2cc1OC | 
11 | 870 nM | COc1ccc(F)c(C(=O)c2ncc(C(=O)O)c3cc(OC)c(OC)cc23)c1 | degraded at 2 h, 1000 µM [2]: 25.4%
12 | > 100000 nM | COc1cccc(C(=O)c2ncc(C(=O)O)c3cc(OC)ccc23)c1 | 
13 | 720 nM | COc1cc2c(C(=O)O)cnc(C(=O)c3cccc(OC(C)C)c3)c2cc1OC | degraded at 2 h, 1000 µM [2]: 75.9%
14 | > 100000 nM | COc1cccc(C(O)c2ncc(C(=O)O)c3cc(OC)c(OC)cc23)c1 (centres undefined) | 
15 | > 100000 nM | COc1cccc(NC(=O)c2ncc(C(=O)O)c3cc(OC)c(OC)cc23)c1 | 
16 | 680 nM | COc1ccc(F)c(C(=O)c2ncc(CNS(=O)(=O)C(F)(F)F)c3cc(OC)c(OC)cc23)c1 | 
17 | 4330 nM | COc1cc2c(CNS(=O)(=O)C(F)(F)F)cnc(C(=O)c3c(F)cccc3F)c2cc1OC | 
18 | 830 nM | CCOc1cccc(C(=O)c2ncc(C(=O)O)c3cc(OC)c(OC)cc23)c1 | 
19 | 940 nM | COc1cc2c(C(=O)O)cnc(C(=O)c3c(F)ccc(OC)c3F)c2cc1OC | 
20 | > 100000 nM | COc1cccc(C(=O)c2ncc(C(=O)O)c3ccccc23)c1 | 
21 |  | COc1cc2ccnc3c2c(c1OC)NC=C3 [AAPTAMINE] | IC50 [5]: 120000 nM
22 | > 100000 nM | COc1cccc(C(=O)c2ncc(C(=O)O)c3cc(O)c(OC)cc23)c1 | 
23 | 1100 nM | COc1cc2c(CNC(C)=O)cnc(C(=O)c3cccc(OC(C)C)c3)c2cc1OC | 
24 |  | N[C@@H](CNC(=O)CBr)C(=O)O | IC50 [4]: 150 nM
25 | 900 nM | COc1cc2c(CNS(C)(=O)=O)cnc(C(=O)c3cccc(OC(C)C)c3)c2cc1OC | 
26 | 1000 nM | COc1cc2c(CNS(=O)(=O)C(F)(F)F)cnc(C(=O)c3cccc(OC(C)C)c3)c2cc1OC | Vd [6]: 0.4 L/kg; bioavailability [7]: 91%; AUC [8]: 239 µg·h/mL; Activity (Mus musculus [9]): >35%; clearance [10]: 3.2 mL/min/kg; logD [11]: 2.89; Stability [12]: Stable; Papp [13]: 35.7 ×10⁻⁶ cm/s; degraded at 2 h, 1000 µM [14]: 30%; Cmax [15]: 112 µM; solubility [16]: 3 µg/mL (≈ 5.85 µM); Ki [17]: 300 nM; Activity (Mus musculus [18]): Active; half-life [19]: 1.68 h; AUC [20]: 52.3 µg·h/mL; Tmax [21]: 1 h; Ki [22]: 300 nM; inhibition [3]: Active; Stability [23]: Stable
27 | 1900 nM | COc1cc2c(CC(=O)O)cnc(C(=O)c3cc(OC(C)C)ccc3F)c2cc1OC | 
28 | 800 nM | CCOc1cccc(C(=O)c2ncc(-c3nn[nH]n3)c3cc(OC)c(OC)cc23)c1 | 
29 | 820 nM | COc1cc2c(CN3C(=O)CSC3=O)cnc(C(=O)c3cccc(OC(C)C)c3)c2cc1OC | 
30 | 2500 nM | COc1cc2c(C(=O)O)cnc(C(=O)c3cc(OC(C)C)ccc3F)c2cc1OC | degraded at 2 h, 1000 µM [2]: 22%
